From patent US8778342B2, “Antibody therapy” (Immunomedics, Inc., priority 2002, dated 2014)
Entries after “also recorded” stand apart in the source; their conditions may differ.

Tests used:
TT MTC xenografts = experiment: Chemotherapy of TT MTC xenografts in nude mice; type: in vivo, human; conditions: for growth inhibition of TT xenografts, drug given individually: doses of FIG. 3; for Mean survival time: untreated control 4 weeks
[1] = test system: TT (human medullary thyroid) tumor cells; type: in vivo; conditions: DTIC 75 μg/dose days 2, 3, 4, hMN-14 100 μg/dose from day 2; for mice with no palpable tumor at 7 weeks: 10 mice/group
[2] = test system: GW-39 human colorectal tumors; experiment: Survival in GW-39 intrapulmonary micrometastasis model in nude mice; conditions: for increase of median survival time: FIG. 18, single agent versus untreated
TT tumors = experiment: Naked anti-CEA MAb alone on growth of TT tumors in nude mice; conditions: for tumors less than 0.5 cm^3: at day-37, 0.5 mg/mouse weekly x4, untreated 40%
CEA = molecular target: T1, CEA (Homo sapiens, UniProt P06731); conditions: Hansen et al., Cancer 71:3478 (1993); cited from earlier work
T1 sequence (P06731 35-676): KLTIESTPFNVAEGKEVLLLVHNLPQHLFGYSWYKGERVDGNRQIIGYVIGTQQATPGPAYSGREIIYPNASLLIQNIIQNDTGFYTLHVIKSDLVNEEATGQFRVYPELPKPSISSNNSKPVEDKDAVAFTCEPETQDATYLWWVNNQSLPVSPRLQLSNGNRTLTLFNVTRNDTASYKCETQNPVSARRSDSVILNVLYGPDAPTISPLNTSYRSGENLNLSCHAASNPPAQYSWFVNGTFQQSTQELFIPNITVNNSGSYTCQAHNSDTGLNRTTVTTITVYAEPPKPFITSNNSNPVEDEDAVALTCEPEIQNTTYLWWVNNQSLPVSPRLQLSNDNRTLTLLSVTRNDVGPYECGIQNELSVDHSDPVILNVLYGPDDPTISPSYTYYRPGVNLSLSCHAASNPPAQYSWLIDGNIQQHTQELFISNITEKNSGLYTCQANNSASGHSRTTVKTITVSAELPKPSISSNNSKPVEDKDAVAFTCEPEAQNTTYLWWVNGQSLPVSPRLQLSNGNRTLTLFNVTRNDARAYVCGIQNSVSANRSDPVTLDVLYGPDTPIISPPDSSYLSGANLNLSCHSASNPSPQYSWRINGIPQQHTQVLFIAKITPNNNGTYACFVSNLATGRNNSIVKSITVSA

[3] = molecular target: T2, normal cross reactive antigen, NCA (Homo sapiens, UniProt P40199); conditions: Hansen et al., Cancer 71:3478 (1993); cited from earlier work
T2 sequence (P40199 35-320): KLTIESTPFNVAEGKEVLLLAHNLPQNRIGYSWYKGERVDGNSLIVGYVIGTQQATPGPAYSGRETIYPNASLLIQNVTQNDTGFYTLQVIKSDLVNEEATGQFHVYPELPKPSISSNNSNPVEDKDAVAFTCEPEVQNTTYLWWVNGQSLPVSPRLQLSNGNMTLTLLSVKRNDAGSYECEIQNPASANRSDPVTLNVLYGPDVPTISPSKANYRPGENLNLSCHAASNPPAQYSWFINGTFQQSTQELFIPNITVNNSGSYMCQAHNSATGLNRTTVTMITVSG

meconium antigen = conditions: Hansen et al., Cancer 71:3478 (1993); cited from earlier work
TT cells = experiment: Flow cytometry reactivity with TT cells
[4] = FIG. 16 advanced colon cancer model, single agents

For `O=P1(N(CCCl)CCCl)NCCCO1` (stereo not shown) [cyclophosphamide], the “growth inhibition of TT xenografts, drug given individually” value (shortened to “growth inhibition of TT xenografts”) (TT MTC xenografts) was “significant growth inhibition”, the “Log rank analysis of survival versus the untreated group” value (TT MTC xenografts; individual drugs) was “significant difference” and the Mean survival time (TT MTC xenografts) was 8 weeks.

In the case of `COc1cccc2c1C(=O)c1c(O)c3c(c(O)c1C2=O)C[C@@](O)(C(=O)CO)C[C@@H]3O[C@H]1C[C@H](N)[C@H](O)[C@H](C)O1` [doxorubicin], the “growth inhibition of TT xenografts” value (TT MTC xenografts) is reported as “significant growth inhibition”.

In the case of `CN(C)/N=N/c1[nH]cnc1C(N)=O` [DTIC, dacarbazine, reference compound], the “Mean tumor volumes at 7 weeks” value [1] is reported as 0.284 ± 0.197 cm^3, the “mice with no palpable tumor at 7 weeks” value [1] is reported as 1/10 and the Mean survival time (TT MTC xenografts) is reported as 11 weeks.

For `CC[C@]1(O)C[C@H]2CN(CCc3c([nH]c4ccccc34)[C@@](C(=O)OC)(c3cc4c(cc3OC)N(C=O)[C@H]3[C@@](O)(C(=O)OC)[C@H](OC(C)=O)[C@]5(CC)C=CCN6CC[C@]43[C@@H]65)C2)C1` [vincristine], the “growth inhibition of TT xenografts” value (TT MTC xenografts) was “not”.

With `CCc1c2c(nc3ccc(OC(=O)N4CCC(N5CCCCC5)CC4)cc13)-c1cc3c(c(=O)n1C2)COC(=O)[C@]3(O)CC` [CPT-11, irinotecan] the median survival time ([2]; 10% GW-39 cell suspension, treatment from day 0, CPT-11 10% MTD (80 μg/d x 5 days), hMN14 100 μg/d, untreated 56 days) was 63 days, the median survival ([2]; FIG. 16 advanced colon cancer model, hMN-14 100 μg/day from day 0, CPT-11 60 μg/day over 5 days) was 63 days and the effect on survival [2, 4] was “only a modest effect”. For the same molecule, the median survival time ([2]; FIG. 17 reduced tumor burden model, 5% tumor cell suspension, dosages of Example 14) was 70 days, the “increase of median survival time” value ([2]; 5% tumor cell suspension) was 76% and the median survival ([2]; pretreatment study, CPT-11 on day 0, alone or co-treatment with hMN-14, untreated 35 days) was 63 days. For the same molecule, the median survival ([2]; pretreatment study, CPT-11 on day 3, alone or after 3-day pretreatment with hMN-14, untreated 35 days) was 70 days.

With “hLL2: negative control humanized MAb, anti-CD22 [reference compound]” the “tumors less than 0.5 cm^3” value (TT tumors) was 29%.

With “hMN-14: humanized (CDR-grafted) Class III anti-CEA monoclonal antibody MN-14, naked” the “Mean tumor volumes at 7 weeks” value [1] was 0.899±0.545 cm^3, the “mice with no palpable tumor at 7 weeks” value [1] was 0/10 and the “delay / inhibition of tumor growth” value ([1]; nude mice) was “Significant delays in tumor growth; also recorded: significant effect on inhibiting tumor growth”. The “mean tumor sizes versus untreated animals” value (TT tumors; 0.5 mg single i.v. injection eleven days post tumor cell injection) was “no significant differences”, the “tumor growth versus untreated group” value (TT tumors; 0.5 mg single i.v. injection on day-1 post tumor injection) was “significant growth delay” and the “inhibition of tumor size compared to the untreated animals” value (TT tumors; 0.5 mg single i.v. injection one day post tumor cell injection, between day-32 and day-60) was 64-70%. The “tumors less than 0.5 cm^3” value (TT tumors) was 87%, the effect on survival [2, 4] was “No effect” and the effect on survival ([2]; FIG. 17 reduced tumor burden model, 5% tumor cell suspension) was “no apparent effect”. For the same molecule, the “increase of median survival time” value ([2]; 5% tumor cell suspension) was 21% and the “efficacy on high (interferon-gamma induced) versus low CEA-expressing tumor cells” value ([2]; FIG. 21) was “improved efficacy”.

B1: murine MN-14: murine Class III anti-CEA MAb, reacting with CEA, unreactive with NCA and meconium antigen (antibody, listed as Mus sp., V domains shown)
VH: EVKLLESGGGLVQSGGSLKLSCAASGFDFTTYWMSWVRQAPGKGLEWIGEIHPDSSTINYAPSLKDKFIVSRDNAKNTLYLQMSKVRSEDTALYYCASLYFGFPWFAYWGQGTPVTVSA
VL: EIQLTQSHKMMSTSVGDRVSITCKASQDVGTSVAWYQQRPGQSPKLLIYWTSTRHTGVPDRFTGSVSGTDFTLTITNVQSEDLADYFCQQYSLYRSFGGGTKLEIK
modifications: constant regions
In the case of B1, the “reactivity with CEA” value (CEA) is listed as “reacting with CEA”, the “reactivity with NCA” value [3] is listed as “unreactive” and the “reactivity with meconium antigen” value (meconium antigen) is listed as “unreactive”. For the same molecule, the “reactivity with TT cells by flow cytometry” value (TT cells) was “react with TT cells”.
